Legend:
[1] = Spectroscopic properties of CF library (absorbance, emission, quantum yield, extinction coefficient); type: physicochemical; conditions: 100 μM in ethanol; for QY (Φ): reference fluorescein
Protocol: All the chemicals and solvents were purchased from Sigma Aldrich, Alfa Aesar, Fluka, MERCK, Tocris or Acros, and used without further purification. Normal phase purifications were carried out using Merck Silica Gel 60 (particle size: 0.040-0.063 mm, 230-400 mesh). Analytical characterization was performed on a HPLC-MS (Agilent-1200 series) with a DAD detector and a single quadrupole mass spectrometer (6130 series) with an ESI probe. ^1H-NMR and ^13C-NMR spectra were recorded on Bruker Avance 300 MHz NMR spectrometers, and chemical shifts are expressed in parts per million (ppm) and coupling constants are reported as a J value in Hertz (Hz). High resolution mass spectrometry (HRMS) data was recorded on a Micro mass VG 7035 (Mass Spectrometry Laboratory at National University of Singapore (NUS)). Spectroscopic and quantum yield data were measured on spectroscopic measurements, performed on a fluorometer and UV/VIS instrument, Synergy 4 of Bioteck Company. The slit width was 1 nm for both excitation and emission, and the data analysis was performed using GraphPrism 5.0.

differentiated NS5 cells = experiment: CDg13 staining of differentiated NS5 cells under ABC transporter inhibitors (flow cytometry); type: cell-based, mouse; conditions: inhibitor during staining
Protocol: (§1) Flow cytometry was performed using Attune Cytometer (Invitrogen). Hoechest33342 (2 μM) and CDg13 (1 μM) are incubated with culture media for 1 hours and detached as single cells. The collected cells were suspended in BSA- and FBS-free DMEM to prevent loss of CDg13 signal. The average fluorescence intensity of total cells in each experimental group was analyzed by Attune cytometer software for quantification study.

human KB3-1 cells = experiment: MTS viability assay on KB3-1 cells; type: cell-based; conditions: 48 h
ABCB1 = ABCB1 (Homo sapiens, UniProt P08183); experiment: Probe fluorescence in HCT-15 cells under verapamil; conditions: HCT-15, 10 to 10,000 nM verapamil
ABCG2 = biological target: T1, ABCG2 (Homo sapiens, UniProt Q9UNQ0); experiment: Probe fluorescence in ABCG2/KB3-1 cells under Ko143; conditions: ABCG2/KB3-1, 10 to 1,000 nM Ko143
T1 sequence (Q9UNQ0 1-655): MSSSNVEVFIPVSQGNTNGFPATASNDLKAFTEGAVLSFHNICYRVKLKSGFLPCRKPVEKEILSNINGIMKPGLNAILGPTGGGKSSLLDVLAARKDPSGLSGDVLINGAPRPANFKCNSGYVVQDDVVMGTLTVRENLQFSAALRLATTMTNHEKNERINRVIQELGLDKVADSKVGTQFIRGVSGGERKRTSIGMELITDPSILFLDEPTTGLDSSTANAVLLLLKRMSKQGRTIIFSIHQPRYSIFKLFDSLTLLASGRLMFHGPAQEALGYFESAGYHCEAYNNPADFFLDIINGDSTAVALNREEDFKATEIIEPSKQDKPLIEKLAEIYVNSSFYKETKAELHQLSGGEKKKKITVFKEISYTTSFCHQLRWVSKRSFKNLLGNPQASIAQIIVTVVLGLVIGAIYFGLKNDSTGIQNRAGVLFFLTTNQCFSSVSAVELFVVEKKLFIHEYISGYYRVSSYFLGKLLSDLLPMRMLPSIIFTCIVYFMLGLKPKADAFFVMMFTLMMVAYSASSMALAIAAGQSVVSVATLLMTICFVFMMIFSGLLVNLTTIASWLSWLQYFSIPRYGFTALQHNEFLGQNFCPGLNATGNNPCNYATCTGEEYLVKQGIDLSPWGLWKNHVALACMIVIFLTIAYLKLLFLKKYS

NS-5 cells = experiment: CDg13 staining of NS5 cells under STF31, ionomycin or Ko143; type: cell-based, mouse; conditions: STF31 2 μM, ionomycin 0.1 μM, Ko143 0.5 μM
Protocol: FIGS. 7A-7C show CDg13 stains depending on Abcg2 activity: (A) CDg13 (1 μM) were stained for 1 hour in live (A-1) or dead cells treated with 4% PFA (A-2) (representative image of three independent experiments, and (B) and (C) NS5 cells were treated STF31 (2 μM), ionomycin (0.1 μM) or Ko143 (0.5 μM) with treatment of CDg13 and Hoechst33342 under normal media (control had same amount of DMSO (0.2%) with other drugs treated group), staining intensity is shown by epifluorescence microscopy (B) or flow cytometry (C) (bar: 50 μm).
as §1

Chain of ABCB1 (P08183 whole entry): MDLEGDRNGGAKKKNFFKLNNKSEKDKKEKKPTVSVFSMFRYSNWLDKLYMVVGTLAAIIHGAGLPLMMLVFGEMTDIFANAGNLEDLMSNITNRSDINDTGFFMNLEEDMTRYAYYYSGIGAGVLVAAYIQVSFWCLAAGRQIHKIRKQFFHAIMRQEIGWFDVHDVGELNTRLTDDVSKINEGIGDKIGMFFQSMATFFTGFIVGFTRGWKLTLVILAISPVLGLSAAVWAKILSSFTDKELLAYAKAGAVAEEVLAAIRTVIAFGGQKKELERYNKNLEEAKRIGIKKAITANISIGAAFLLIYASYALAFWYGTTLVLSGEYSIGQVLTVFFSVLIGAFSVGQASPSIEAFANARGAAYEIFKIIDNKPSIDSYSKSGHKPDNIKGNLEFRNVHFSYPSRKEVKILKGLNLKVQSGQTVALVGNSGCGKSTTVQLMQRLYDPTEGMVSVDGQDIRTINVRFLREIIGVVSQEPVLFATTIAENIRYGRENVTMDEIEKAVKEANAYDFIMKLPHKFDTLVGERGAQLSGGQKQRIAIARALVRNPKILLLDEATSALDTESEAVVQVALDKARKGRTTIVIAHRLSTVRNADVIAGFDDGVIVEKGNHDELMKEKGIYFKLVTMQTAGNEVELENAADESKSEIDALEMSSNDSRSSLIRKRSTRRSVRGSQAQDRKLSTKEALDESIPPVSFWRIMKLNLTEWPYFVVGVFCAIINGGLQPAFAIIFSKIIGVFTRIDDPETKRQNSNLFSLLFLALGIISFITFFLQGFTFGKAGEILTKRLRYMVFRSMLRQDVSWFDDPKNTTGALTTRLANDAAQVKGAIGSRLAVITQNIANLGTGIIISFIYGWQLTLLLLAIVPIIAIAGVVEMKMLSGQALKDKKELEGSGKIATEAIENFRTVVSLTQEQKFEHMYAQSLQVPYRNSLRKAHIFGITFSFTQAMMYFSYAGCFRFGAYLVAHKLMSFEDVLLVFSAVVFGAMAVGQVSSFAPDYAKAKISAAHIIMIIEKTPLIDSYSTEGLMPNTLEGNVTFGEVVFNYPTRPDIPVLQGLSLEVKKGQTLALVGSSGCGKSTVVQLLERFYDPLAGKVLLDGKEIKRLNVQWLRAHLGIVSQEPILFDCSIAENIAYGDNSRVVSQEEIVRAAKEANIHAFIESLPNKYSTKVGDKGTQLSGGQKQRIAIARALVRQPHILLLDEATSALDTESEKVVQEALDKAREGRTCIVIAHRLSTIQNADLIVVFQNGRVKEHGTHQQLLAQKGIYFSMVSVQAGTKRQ

Compound	Abs (nm) [1] [nm]	Em (nm) [1] [nm]	QY (Φ) [1]	also measured
C#CCNC(=O)c1ccc(-c2c3cc(Cl)c(=O)cc-3oc3cc(O)c(Cl)cc23)cc1 [CF-F11]	520	559	0.21	–
CCCCCCCCCCCCN(C)C(=O)c1ccc(-c2c3cc(Cl)c(=O)cc-3oc3cc(O)c(Cl)cc23)cc1 [CF-G2]	520	553	0.85	–
CCCCCN(CCCCC)C(=O)c1ccc(-c2c3cc(Cl)c(=O)cc-3oc3cc(O)c(Cl)cc23)cc1 [CF-G3]	520	552	0.63	–
O=C(CCCCc1ccccc1)c1ccc(-c2c3cc(Cl)c(=O)cc-3oc3cc(O)c(Cl)cc23)cc1 [CF-G4]	520	556	0.40	–
CCCC(C)NC(=O)c1ccc(-c2c3cc(Cl)c(=O)cc-3oc3cc(O)c(Cl)cc23)cc1 (stereo not drawn) [CF-G5]	520	557	0.38	–
CCOC(=O)N1CCC(NC(=O)c2ccc(-c3c4cc(Cl)c(=O)cc-4oc4cc(O)c(Cl)cc34)cc2)CC1 [CF-G6]	520	556	0.29	–
CCCCNC(=O)c1ccc(-c2c3cc(Cl)c(=O)cc-3oc3cc(O)c(Cl)cc23)cc1 [CF-G7]	520	559	0.41	–
CCC(C)NC(=O)c1ccc(-c2c3cc(Cl)c(=O)cc-3oc3cc(O)c(Cl)cc23)cc1 (stereo not drawn) [CF-G8]	520	556	0.29	–
O=C(NCC1CCCCC1)c1ccc(-c2c3cc(Cl)c(=O)cc-3oc3cc(O)c(Cl)cc23)cc1 [CF-G9]	520	557	0.27	–
CCCCCNC(=O)c1ccc(-c2c3cc(Cl)c(=O)cc-3oc3cc(O)c(Cl)cc23)cc1 [CF-G10]	520	558	0.23	–
CCC(C)(C)NC(=O)c1ccc(-c2c3cc(Cl)c(=O)cc-3oc3cc(O)c(Cl)cc23)cc1 [CF-G11]	520	557	0.35	–
CC1CCCC(NC(=O)c2ccc(-c3c4cc(Cl)c(=O)cc-4oc4cc(O)c(Cl)cc34)cc2)C1C (stereo not drawn) [CF-H2]	520	556	0.65	–
COCCN(CCOC)C(=O)c1ccc(-c2c3cc(Cl)c(=O)cc-3oc3cc(O)c(Cl)cc23)cc1 [CF-H3]	520	553	0.82	–
CCCCCCNC(=O)c1ccc(-c2c3cc(Cl)c(=O)cc-3oc3cc(O)c(Cl)cc23)cc1 [CF-H4]	520	556	0.63	–
CC1CCC(NC(=O)c2ccc(-c3c4cc(Cl)c(=O)cc-4oc4cc(O)c(Cl)cc34)cc2)CC1 (stereo not drawn) [CF-H5]	520	557	0.67	–
CC1CCCCN1C(=O)c1ccc(-c2c3cc(Cl)c(=O)cc-3oc3cc(O)c(Cl)cc23)cc1 (stereo not drawn) [CF-H6]	520	553	0.65	–
O=C(NCCc1ccccc1F)c1ccc(-c2c3cc(Cl)c(=O)cc-3oc3cc(O)c(Cl)cc23)cc1 [CF-H7]	520	557	0.59	–
O=C(NCCc1ccccc1Cl)c1ccc(-c2c3cc(Cl)c(=O)cc-3oc3cc(O)c(Cl)cc23)cc1 [CF-H8]	520	556	0.51	–
O=C(NCCc1ccccc1-c1ccccc1)c1ccc(-c2c3cc(Cl)c(=O)cc-3oc3cc(O)c(Cl)cc23)cc1 [CF-H9]	520	558	0.30	–
CC(C)CC(C)NC(=O)c1ccc(-c2c3cc(Cl)c(=O)cc-3oc3cc(O)c(Cl)cc23)cc1 (stereo not drawn) [CF-H10]	520	557	0.38	–
CCCCCCCCCCCCCCCCCCN(C)C(=O)c1ccc(-c2c3cc(Cl)c(=O)cc-3oc3cc(O)c(Cl)cc23)cc1 [CF-H11]	520	552	0.32	–
COc1cc2c(cc1OC)CN(CCc1ccc(NC(=O)c3cccc4c(=O)c5cccc(OC)c5[nH]c34)cc1)CC2 [Elacridar, elacridar]	–	–	–	staining of CDg13 versus DMSO control (differentiated NS5 cells): around 2.5 fold
CCOc1ccc(-c2nc3ccc(-c4nc5ccc(N6CCN(C)CC6)cc5[nH]4)cc3[nH]2)cc1 [Hoechst 33342]	–	–	–	death rate (human KB3-1 cells; 1 μM): 25%; cell death (human KB3-1 cells; 10 μM): 100%; fold change of staining (ABCB1): up to 1.5 fold; fold change in fluorescence intensity (ABCG2): up to 1.3 fold
COc1ccc2c3c([nH]c2c1)[C@H](CC(C)C)N1C(=O)[C@H](CCC(=O)OC(C)(C)C)NC(=O)[C@@H]1C3 [Ko143]	–	–	–	effect on CDg13 staining (NS-5 cells): stained CDg13 more strongly than normal NS-5 cells; staining of CDg13 versus DMSO control (differentiated NS5 cells): around 2.5 fold
CN(C)C(=O)CCSC(SCCC(=O)O)c1cccc(/C=C/c2ccc3ccc(Cl)cc3n2)c1 (stereo not drawn) [MK571]	–	–	–	staining of CDg13 versus DMSO control (differentiated NS5 cells): ~1.5 fold
CCCN(CCC)S(=O)(=O)c1ccc(C(=O)O)cc1 [probenecid]	–	–	–	staining of CDg13 versus DMSO control (differentiated NS5 cells): no effect of probe staining
COc1ccc(CCN(C)CCCC(C#N)(c2ccc(OC)c(OC)c2)C(C)C)cc1OC (stereo not drawn) [verapamil]	–	–	–	staining of CDg13 versus DMSO control (differentiated NS5 cells): no effect of probe staining
Rhodamine123	–	–	–	fold change of staining (ABCB1): up to 4.0 fold; fold change in fluorescence intensity (ABCG2): did not increase
